Results: patent US8513251B2, “Pyridazinone compounds” (Takeda Pharmaceutical Company Limited, priority 2009, dated 2013)
Where a name gives a salt, the structure may show the parent alone.

How the values were obtained:
Human PDE10A enzyme = target: T1, Human PDE10A enzyme (Homo sapiens, UniProt Q9Y233); experiment: PDE enzyme inhibition, SPA (Scintillation Proximity Assay); type: biochemical; settings: Table 1; for inhibition at 1 µM: compound at 1 μM, read-out: Percent inhibition (1 μM); for IC50: human PDE10A, [3H]cGMP substrate
T1 construct: Human PDE10A enzyme was generated from Sf9 or COS-7 cells transfected with the full-length gene; His-tag; made in house; host or cells: Sf9 or COS-7 cells
Description: Human PDE10A enzyme was generated from Sf9 or COS-7 cells transfected with the full-length gene. Cloned enzyme was extracted from homogenized cell pellets. The extracted enzyme from Sf9 cells was partially purified using His-tag affinity column. The enzyme was stored at −70° C. until use. PDE activity was measured using a SPA (Scintillation Proximity Assay) (GE Healthcare). To evaluate the inhibitory activity, 10 μL of serial diluted compounds were incubated with 20 μL of PDE enzyme in assay buffer (50 mM HEPES-NaOH, 8.3 mM MgCl2, 1.7 mM EGTA, 0.1% BSA (pH 7.4)) for 30 min. at room temperature. Final concentration of DMSO in the assay was 1 percent as compounds were tested in duplicate in 96-well half-area plates (Corning). To start the reaction, 10 μL of substrate [3H] cGMP (25 or 50 nM; enclosed in SPA kits from GE Healthcare or purchased from PerkinElmer, respectively) was added for a final assay volume of 40 μL. After 60 min incubation at room temperature, yttrium SPA beads containing Zinc sulphate were added (20 μL at 6 mg/mL) to terminate the PDE reaction. After being settled for 60 min., assay plates were counted in a scintillation counter (PerkinElmer) to allow calculation of inhibition rate and IC50. Inhibition rate was calculated on the basis of 0% control wells with DMSO and 100% control wells without enzyme.

T1 sequence (Q9Y233 267-1055): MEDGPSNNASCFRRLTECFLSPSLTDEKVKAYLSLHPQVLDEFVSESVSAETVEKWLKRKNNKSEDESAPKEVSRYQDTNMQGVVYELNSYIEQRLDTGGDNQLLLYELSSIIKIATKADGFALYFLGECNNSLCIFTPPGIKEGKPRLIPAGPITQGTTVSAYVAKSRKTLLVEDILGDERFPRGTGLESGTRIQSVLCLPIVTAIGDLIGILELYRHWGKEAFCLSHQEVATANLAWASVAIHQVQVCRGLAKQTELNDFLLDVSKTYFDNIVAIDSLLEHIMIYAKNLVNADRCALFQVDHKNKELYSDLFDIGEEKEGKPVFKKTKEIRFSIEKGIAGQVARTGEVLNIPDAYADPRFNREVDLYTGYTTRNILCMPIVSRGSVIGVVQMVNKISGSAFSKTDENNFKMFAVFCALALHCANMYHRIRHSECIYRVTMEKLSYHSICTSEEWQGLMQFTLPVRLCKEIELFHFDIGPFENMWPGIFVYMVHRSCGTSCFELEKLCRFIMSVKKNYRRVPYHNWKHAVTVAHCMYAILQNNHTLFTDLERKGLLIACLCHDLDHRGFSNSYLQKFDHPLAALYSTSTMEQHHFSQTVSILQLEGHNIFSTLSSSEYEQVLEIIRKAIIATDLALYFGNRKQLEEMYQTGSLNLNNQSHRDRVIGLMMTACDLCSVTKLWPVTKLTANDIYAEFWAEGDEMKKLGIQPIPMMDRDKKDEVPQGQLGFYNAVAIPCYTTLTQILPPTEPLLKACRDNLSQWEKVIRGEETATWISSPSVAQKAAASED

Row | SMILES | inhibition at 1 µM (Human PDE10A enzyme) [%] | IC50 (Human PDE10A enzyme) [nM] | melting point [°C]
1 | COc1cn(-c2ccccc2F)nc(-c2ccnn2-c2ccccc2)c1=O [Example 52, 1-(2-Fluorophenyl)-5-methoxy-3-(1-phenyl-1H-pyrazol-5-yl)pyridazin-4(1H)-one] | 99 | < 10 | 163 to 165
2 | O=c1ccn(-c2ccc(F)cc2)nc1-c1ccnn1-c1ccccc1 [Example 17, 1-(4-Fluorophenyl)-3-(1-phenyl-1H-pyrazol-5-yl)pyridazin-4(1H)-one] | 97 | 10 to 200 | 252 to 253
3 | O=c1c(OC(F)F)cn(-c2ccccc2F)nc1-c1ccnn1-c1ccccc1 [Example 64, 5-(Difluoromethoxy)-1-(2-fluorophenyl)-3-(1-phenyl-1H-pyrazol-5-yl)pyridazin-4(1H)-one] | 94 | 10 to 200 | 109 to 114
4 | O=c1ccn(-c2ccccc2OC(F)F)nc1-c1ccnn1-c1ccccc1 [Example 26, 1-[2-(Difluoromethoxy)phenyl]-3-(1-phenyl-1H-pyrazol-5-yl)pyridazin-4(1H)-one] | 97 | 10 to 200 | 123 to 124
5 | COc1ccccc1-n1ccc(=O)c(-c2ccnn2-c2ccccc2)n1 [Example 13, 1-(2-Methoxyphenyl)-3-(1-phenyl-1H-pyrazol-5-yl)pyridazin-4(1H)-one] | 96 | 10 to 200 | 153 to 154
6 | COc1cn(-c2ccc(N3CCOCC3)cc2F)nc(-c2ccnn2-c2ccccc2)c1=O [Example 57, 1-(2-Fluoro-4-morpholin-4-ylphenyl)-5-methoxy-3-(1-phenyl-1H-pyrazol-5-yl)pyridazin-4(1H)-one] | 101 | < 10 | 226 to 228
7 | COc1cn(-c2cccc(C(F)(F)F)c2)nc(-c2ccnn2-c2ccccc2)c1=O [Example 54, 5-Methoxy-3-(1-phenyl-1H-pyrazol-5-yl)-1-[3-(trifluoromethyl)phenyl]pyridazin-4(1H)-one] | 100 | < 10 | 139 to 141
8 | O=c1ccn(-c2ccccc2F)nc1-c1ccnn1-c1ccccc1 [Example 16, 1-(2-Fluorophenyl)-3-(1-phenyl-1H-pyrazol-5-yl)pyridazin-4(1H)-one] | 97 | 10 to 200 | 124 to 125
9 | COc1cn(-c2ccc(OS(=O)(=O)C(F)(F)F)cc2F)nc(-c2ccnn2-c2ccccc2)c1=O (as salt: methanesulfonate) [Example 93, 3-Fluoro-4-[5-methoxy-4-oxo-3-(1-phenyl-1H-pyrazol-5-yl)pyridazin-1(4H)-yl]phenyl trifluoromethanesulfonate] |  |  | 108 to 110
10 | CC(C)n1ncc(-c2nn(-c3cccc(C(F)(F)F)c3)ccc2=O)c1-c1ccccc1 [Example 78, 3-[1-(1-Methylethyl)-5-phenyl-1H-pyrazol-4-yl]-1-[3-(trifluoromethyl)phenyl]pyridazin-4(1H)-one] |  |  | 183 to 186
11 | O=c1c(Br)cn(-c2cccc(C(F)(F)F)c2)nc1-c1ccnn1-c1ccccc1 [Example 67, 5-Bromo-3-(1-phenyl-1H-pyrazol-5-yl)-1-[3-(trifluoromethyl)phenyl]pyridazin-4(1H)-one] |  |  | 145 to 146
12 | O=c1ccn(-c2ccccc2Cl)nc1-c1ccnn1-c1ccccc1 [Example 32, 1-(2-Chlorophenyl)-3-(1-phenyl-1H-pyrazol-5-yl)pyridazin-4(1H)-one] | 89 | 10 to 200 | 138 to 139
13 | COc1cn(-c2ccncc2)nc(-c2ccnn2-c2ccccc2)c1=O [Example 87, 5-Methoxy-3-(1-phenyl-1H-pyrazol-5-yl)-1-pyridin-4-ylpyridazin-4(1H)-one] |  |  | 195 to 197
14 | Cn1ncc(-c2nn(-c3cccc(C(F)(F)F)c3)ccc2=O)c1-c1ccccc1 [Example 75, 3-(1-Methyl-5-phenyl-1H-pyrazol-4-yl)-1-[3-(trifluoromethyl)phenyl]pyridazin-4(1H)-one] |  |  | 193 to 195
15 | O=c1ccn(-c2ccccc2N2CCOCC2)nc1-c1ccnn1-c1ccccc1 [Example 29, 1-(2-Morpholin-4-ylphenyl)-3-(1-phenyl-1H-pyrazol-5-yl)pyridazin-4(1H)-one] |  |  | 200 to 201
16 | Cc1ccccc1-n1ccc(=O)c(-c2ccnn2-c2ccccc2)n1 [Example 19, 1-(2-Methylphenyl)-3-(1-phenyl-1H-pyrazol-5-yl)pyridazin-4(1H)-one] |  |  | 120 to 121

Row | SMILES | inhibition at 1 µM (Human PDE10A enzyme) [%] | IC50 (Human PDE10A enzyme) [nM] | melting point [°C]
17 | Cc1nnc(-c2nn(-c3cccc(C(F)(F)F)c3)ccc2=O)n1-c1ccccc1 [Example 41, 3-(5-Methyl-4-phenyl-4H-1,2,4-triazol-3-yl)-1-[3-(trifluoromethyl)phenyl]pyridazin-4(1H)-one] |  |  | 191 to 192
18 | COc1ccc(-n2nccc2-c2nn(-c3cccc(C(F)(F)F)c3)ccc2=O)cc1 [Example 4, 3-[1-(4-Methoxyphenyl)-1H-pyrazol-5-yl]-1-[3-(trifluoromethyl)phenyl]pyridazin-4(1H)-one] |  |  | 173 to 174
19 | O=c1ccn(-c2ccccc2)nc1-c1ccnn1-c1ccccc1 [Example 24, 1-Phenyl-3-(1-phenyl-1H-pyrazol-5-yl)pyridazin-4(1H)-one] |  |  | 179 to 180
20 | COc1cn(-c2cccc3c2OC(F)(F)O3)nc(-c2ccnn2-c2ccccc2)c1=O [Example 90, 1-(2,2-Difluoro-1,3-benzodioxol-4-yl)-5-methoxy-3-(1-phenyl-1H-pyrazol-5-yl)pyridazin-4(1H)-one] |  |  | 181 to 183
21 | O=c1ccn(-c2cccc(C(F)(F)F)c2)nc1-c1ccsc1-c1ccccc1 [Example 86, 3-(2-Phenylthiophen-3-yl)-1-[3-(trifluoromethyl)phenyl]pyridazin-4(1H)-one] |  |  | 167 to 168
22 | O=c1ccn(-c2ccc(Cl)cc2)nc1-c1ccnn1-c1ccccc1 [Example 18, 1-(4-Chlorophenyl)-3-(1-phenyl-1H-pyrazol-5-yl)pyridazin-4(1H)-one] |  |  | 219 to 220
23 | COc1ccc(-n2ccc(=O)c(-c3ccnn3-c3ccccc3)n2)cc1 [Example 14, 1-(4-Methoxyphenyl)-3-(1-phenyl-1H-pyrazol-5-yl)pyridazin-4(1H)-one] |  |  | 179 to 180
24 | COc1cn(-c2ccc(-c3c(C)noc3C)cc2F)nc(-c2ccnn2-c2ccccc2)c1=O [Example 112, 1-[4-(3,5-Dimethylisoxazol-4-yl)-2-fluorophenyl]-5-methoxy-3-(1-phenyl-1H-pyrazol-5-yl)pyridazin-4(1H)-one] |  |  | 200 to 202
25 | COc1ccc(Cn2nccc2-c2nn(-c3cccc(C(F)(F)F)c3)ccc2=O)cc1 [Example 154, 3-[1-(4-Methoxybenzyl)-1H-pyrazol-5-yl]-1-[3-(trifluoromethyl)phenyl]pyridazin-4(1H)-one] |  |  | 159 to 161
26 | COc1cn(-c2cc(N3CCCC3=O)ccc2F)nc(-c2ccnn2-c2ccccc2)c1=O [Example 182, 1-[2-Fluoro-5-(2-oxopyrrolidin-1-yl)phenyl]-5-methoxy-3-(1-phenyl-1H-pyrazol-5-yl)pyridazin-4(1H)-one] |  |  | 171 to 174
27 | COc1cn(-c2cccc(C(F)(F)F)c2)nc(-n2ccnc2-c2ccccc2)c1=O [Example 82, 5-Methoxy-3-(2-phenyl-1H-imidazol-1-yl)-1-[3-(trifluoromethyl)phenyl]pyridazin-4(1H)-one] |  |  | 167 to 170
28 | O=c1ccn(-c2cccc(C(F)(F)F)c2)nc1-c1ccoc1-c1ccccc1 [Example 85, 3-(2-Phenylfuran-3-yl)-1-[3-(trifluoromethyl)phenyl]pyridazin-4(1H)-one] |  |  | 159 to 163
29 | COCc1cn(-c2cccc(C(F)(F)F)c2)nc(-c2ccnn2-c2ccccc2)c1=O [Example 66, 5-(Methoxymethyl)-3-(1-phenyl-1H-Pyrazol-5-yl)-1-[3-(trifluoromethyl)phenyl]pyridazin-4(1H)-one] |  |  | 137 to 139
30 | COc1cn(-c2cccc3cccnc23)nc(-c2ccnn2-c2ccccc2)c1=O [Example 88, 5-Methoxy-3-(1-phenyl-1H-pyrazol-5-yl)-1-quinolin-8-ylpyridazin-4(1H)-one] |  |  | 189 to 192
31 | COc1cn(-c2cc3c(cc2F)OC(F)(F)C(F)(F)O3)nc(-c2ccnn2-c2ccccc2)c1=O [Example 96, 5-Methoxy-1-(2,2,3,3,7-pentafluoro-2,3-dihydro-1,4-benzodioxin-6-yl)-3-(1-phenyl-1H-pyrazol-5-yl)pyridazin-4(1H)-one] |  |  | 192 to 194
32 | CC(C)Oc1cn(-c2cccc(C(F)(F)F)c2)nc(-c2ccnn2-c2ccccc2)c1=O [Example 60, 5-(1-Methylethoxy)-3-(1-phenyl-1H-pyrazol-5-yl)-1-[3-(trifluoromethyl)phenyl]pyridazin-4(1H)-one] |  |  | 137 to 139
